CCOc1ccccc1NCc1cnc2nc(N)nc(N)c2c1C and Cc1ccccc1NCc1cnc2nc(N)nc(N)c2c1C are within 0.2 log units of each other in logP: 2.07 for the first, 1.98 for the second.

Cc1c(CNc2ccc(Cl)c(Cl)c2)cnc2nc(N)nc(N)c12 and Cc1cc(NCc2cnc3nc(N)nc(N)c3c2C)ccc1Cl are within 0.2 log units of each other in logP: 2.06 for the first, 2.03 for the second.

Cc1cc(C)cc(NCc2cnc3nc(N)nc(N)c3c2C)c1 and Cc1ccc(C)c(NCc2cnc3nc(N)nc(N)c3c2C)c1 are within 0.2 log units of each other in logP: 2.11 for the first, 2.29 for the second.

Cc1c(CNc2c(Cl)cccc2Cl)cnc2nc(N)nc(N)c12 and Cc1cccc(Cl)c1NCc1cnc2nc(N)nc(N)c2c1C are within 0.2 log units of each other in logP: 2 for the first, 2.05 for the second.

CC(=O)c1ccc(NCc2cnc3nc(N)nc(N)c3c2C)cc1 and CC(=O)c1cccc(NCc2cnc3nc(N)nc(N)c3c2C)c1 are within 0.2 log units of each other in logP: 1.45 for the first, 1.46 for the second.

Cc1c(CNc2cccc(Cl)c2Cl)cnc2nc(N)nc(N)c12 and Cc1c(Cl)cccc1NCc1cnc2nc(N)nc(N)c2c1C are within 0.2 log units of each other in logP: 2.1 for the first, 2.04 for the second.

Cc1c(CNc2ccccc2)cnc2nc(N)nc(N)c12 and Cc1c(CNc2ccc(Cl)cc2)cnc2nc(N)nc(N)c12 are within 0.2 log units of each other in logP: 2.02 for the first, 2.03 for the second.

Work on Cc1ccc(NCc2cnc3nc(N)nc(N)c3c2C)cc1Cl yielded a logP of 2.03.

Reference: the SangsterLogP compilation
